ChEMBL document CHEMBL3351572, “Almiramide D, cytotoxic peptide from the marine cyanobacterium Oscillatoria nigroviridis” (Bioorg Med Chem, 2014)
pIC50: −log10 of the molar value. Where a SMILES comes first, the peptide text is derived from it. [ ]: non-standard residue; d: D form. The star is where a group is joined. Oct7ynoyl(2R-Me) = C#CCCCC[C@@H](C)C(=O)*; NMeF = CN[C@@H](Cc1ccccc1)C(=O)O; NMeI = CC[C@H](C)[C@H](NC)C(=O)O; NMeV = CN[C@H](C(=O)O)C(C)C; NMeA = CN[C@@H](C)C(=O)O

Legend:
A549 = test: Cytotoxicity against human A549 cells after 48 hrs by alamar blue assay; assay type: functional, cell-based; conditions: A549, 48 h
HT-29 = test: Cytotoxicity against human HT-29 cells after 48 hrs by alamar blue assay; assay type: functional, cell-based; conditions: HT-29, 48 h
HeLa = test: Cytotoxicity against human HeLa cells after 48 hrs by alamar blue assay; assay type: functional, cell-based
[1] = Cytotoxicity against human PC3 cells after 48 hrs by alamar blue assay; assay type: functional, cell-based; conditions: PC-3, 48 h
MDA-MB-231 = test: Cytotoxicity against human MDA-MB-231 cells after 48 hrs by alamar blue assay; assay type: functional, cell-based; conditions: MDA-MB-231, 48 h
Artemia = test: Cytotoxicity against brine shrimps larvae assessed as mortality after 48 hrs; assay type: organism-based; conditions: in vivo

SMILES | pIC50 (A549) | pIC50 (HT-29) | pIC50 (HeLa) | pIC50 [1] | pIC50 (MDA-MB-231) | Activity (Artemia)
C#CCCCC[C@@H](C)C(=O)N(C)[C@H](C(=O)N(C)[C@H](C(=O)N[C@H](C(=O)N(C)[C@H](C(=O)N[C@@H](C)C(N)=O)[C@@H](C)CC)[C@@H](C)CC)C(C)C)C(C)C ({Oct7ynoyl(2R-Me)}-[NMeV][NMeV]I[NMeI]A-NH2) | 4.23 | 4.04 | 4.77 | 4.21 | 3.09 | –
C#CCCCC[C@@H](C)C(=O)N(C)[C@H](C(=O)N(C)[C@H](C(=O)N[C@H](C(=O)N(C)[C@@H](C)C(=O)N(C)[C@@H](Cc1ccccc1)C(N)=O)C(C)C)C(C)C)C(C)C [ALMIRAMIDE B] ({Oct7ynoyl(2R-Me)}-[NMeV][NMeV]V[NMeA][NMeF]-NH2) | 4.12 | 4.00 | 4.28 | 3.97 | 4.89 | –
COc1cccc2c1C(=O)c1c(O)c3c(c(O)c1C2=O)C[C@@](O)(C(=O)CO)C[C@@H]3O[C@H]1C[C@H](N)[C@H](O)[C@H](C)O1 [DOXORUBICIN] | 4.85 | – | – | 4.77 | – | Non-toxic
